Data published in ChEMBL document CHEMBL1130781, “Structure-based design and synthesis of a series of hydroxamic acids with a quaternary-hydroxy group in P1 as inhibitors of matrix metalloproteinases” (Bioorg Med Chem Lett, 1998).

Legend:
Interstitial collagenase = molecular target: T1, Interstitial collagenase (Homo sapiens, UniProt P03956); experiment: Binding affinity was evaluated against matrix metalloprotease-1
T1 sequence (P03956 whole entry): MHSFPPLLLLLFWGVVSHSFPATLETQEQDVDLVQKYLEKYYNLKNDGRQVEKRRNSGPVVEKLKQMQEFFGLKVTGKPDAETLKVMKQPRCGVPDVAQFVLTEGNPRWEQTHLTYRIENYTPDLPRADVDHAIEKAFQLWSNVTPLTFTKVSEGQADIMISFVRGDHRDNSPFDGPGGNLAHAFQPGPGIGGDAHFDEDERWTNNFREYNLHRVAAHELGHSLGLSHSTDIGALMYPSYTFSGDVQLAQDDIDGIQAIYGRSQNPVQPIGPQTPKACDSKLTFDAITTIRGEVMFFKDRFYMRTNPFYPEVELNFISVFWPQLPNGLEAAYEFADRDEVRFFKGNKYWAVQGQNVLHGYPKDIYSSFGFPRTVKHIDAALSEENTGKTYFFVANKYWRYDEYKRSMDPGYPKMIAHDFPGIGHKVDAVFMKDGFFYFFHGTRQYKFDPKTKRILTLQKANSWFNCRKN

Stromelysin-1 = Stromelysin-1 (Homo sapiens, UniProt P08254); experiment: Binding affinity against human matrix metalloprotease-3.
[1] = molecular target: Matrix metalloproteinase-9 (Homo sapiens, UniProt P14780); experiment: Binding affinity was evaluated against matrix metalloprotease-9
Chain of Matrix metalloproteinase-9 (P14780 whole entry): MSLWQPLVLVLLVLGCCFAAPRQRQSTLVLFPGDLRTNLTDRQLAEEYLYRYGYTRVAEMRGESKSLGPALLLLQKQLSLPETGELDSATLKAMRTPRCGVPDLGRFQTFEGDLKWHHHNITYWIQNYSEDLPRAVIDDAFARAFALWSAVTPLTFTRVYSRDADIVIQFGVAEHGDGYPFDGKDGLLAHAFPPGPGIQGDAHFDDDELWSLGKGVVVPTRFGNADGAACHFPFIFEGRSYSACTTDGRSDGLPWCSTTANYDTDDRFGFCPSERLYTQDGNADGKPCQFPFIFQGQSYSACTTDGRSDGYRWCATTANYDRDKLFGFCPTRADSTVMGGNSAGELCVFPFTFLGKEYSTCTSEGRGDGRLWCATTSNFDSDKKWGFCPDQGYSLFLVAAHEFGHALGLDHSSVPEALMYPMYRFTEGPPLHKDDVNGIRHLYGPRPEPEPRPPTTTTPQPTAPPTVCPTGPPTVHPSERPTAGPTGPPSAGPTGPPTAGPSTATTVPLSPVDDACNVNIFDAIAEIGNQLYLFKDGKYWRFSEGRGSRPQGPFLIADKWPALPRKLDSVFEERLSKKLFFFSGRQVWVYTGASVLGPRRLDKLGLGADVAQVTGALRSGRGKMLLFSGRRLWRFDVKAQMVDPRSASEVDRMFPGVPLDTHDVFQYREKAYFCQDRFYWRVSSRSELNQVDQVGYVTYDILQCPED

Chain of Stromelysin-1 (P08254 whole entry): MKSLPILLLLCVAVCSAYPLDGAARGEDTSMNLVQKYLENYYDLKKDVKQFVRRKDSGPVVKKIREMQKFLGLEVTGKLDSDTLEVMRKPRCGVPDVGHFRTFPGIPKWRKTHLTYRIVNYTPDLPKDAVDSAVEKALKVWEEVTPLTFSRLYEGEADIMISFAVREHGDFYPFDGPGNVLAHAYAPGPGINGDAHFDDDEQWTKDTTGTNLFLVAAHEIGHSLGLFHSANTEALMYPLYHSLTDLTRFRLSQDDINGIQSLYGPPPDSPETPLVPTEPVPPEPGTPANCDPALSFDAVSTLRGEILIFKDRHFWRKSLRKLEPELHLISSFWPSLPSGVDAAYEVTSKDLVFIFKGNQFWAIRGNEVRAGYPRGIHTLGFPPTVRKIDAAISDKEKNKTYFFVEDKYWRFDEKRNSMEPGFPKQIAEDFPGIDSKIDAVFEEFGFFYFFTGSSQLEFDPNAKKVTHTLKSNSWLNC

Ki (Interstitial collagenase) | Ki (Stromelysin-1) | Ki [1] | Compound
22 nM | 24 nM | 2 nM | CNC(=O)[C@H](CCCNS(=O)(=O)N(C)C)NC(=O)[C@H](CCCc1ccccc1)[C@@](C)(O)C(=O)NO
16 nM | 13 nM | 2 nM | CNC(=O)[C@H](CCCNC(=O)OC(C)(C)C)NC(=O)[C@H](CCCc1ccccc1)[C@@](C)(O)C(=O)NO
0.6 nM | 13 nM | < 1 nM | CNC(=O)[C@H](Cc1ccc(OC)cc1)NC(=O)[C@H](CC(C)C)[C@@](C)(O)C(=O)NO
2 nM | 3 nM | < 1 nM | CNC(=O)[C@H](Cc1ccc(OC)cc1)NC(=O)[C@H](CCCc1ccccc1)[C@@](C)(O)C(=O)NO
167 nM | 25 nM | > 213 nM | C[C@](O)(C(=O)NO)[C@@H](CCCc1ccccc1)C(=O)N[C@@H](Cc1ccccc1)C(=O)O
33 nM | 25 nM | 2 nM | CNC(=O)[C@H](Cc1ccc(OC)cc1)NC(=O)[C@H](CCc1ccccc1)[C@@](C)(O)C(=O)NO
13 nM | 13 nM | < 1 nM | CNC(=O)[C@@H](NC(=O)[C@H](CCCc1ccccc1)[C@@](C)(O)C(=O)NO)C(C)(C)C
18 nM | 103 nM | 5 nM | CNC(=O)[C@H](CCCN)NC(=O)[C@H](CCCc1ccccc1)[C@@](C)(O)C(=O)NO
– | > 10000 nM | – | CNC(=O)[C@H](Cc1ccc(OC)cc1)NC(=O)[C@H](Cc1ccccc1)[C@](C)(O)C(=O)NO
– | > 10000 nM | – | CNC(=O)[C@H](Cc1ccc(OC)cc1)NC(=O)[C@H](CCc1ccccc1)[C@](C)(O)C(=O)NO
198 nM | 100 nM | 34 nM | CC(C)(C)OC(=O)[C@H](Cc1ccccc1)NC(=O)[C@H](CCCc1ccccc1)[C@@](C)(O)C(=O)NO
15 nM | 32 nM | < 1 nM | CNC(=O)[C@H](CCCCN)NC(=O)[C@H](CCCc1ccccc1)[C@@](C)(O)C(=O)NO
85 nM | 526 nM | 5 nM | CNC(=O)[C@H](Cc1ccc(OC)cc1)NC(=O)[C@H](Cc1ccccc1)[C@@](C)(O)C(=O)NO
282 nM | 168 nM | 149 nM | C[C@@H](NC(=O)[C@H](CCCCN)NC(=O)[C@H](CCCc1ccccc1)[C@@](C)(O)C(=O)NO)c1ccccc1
– | > 10000 nM | – | CNC(=O)[C@H](Cc1ccc(OC)cc1)NC(=O)[C@H](CC(C)C)[C@](C)(O)C(=O)NO
25 nM | 28 nM | 1 nM | C[C@](O)(C(=O)NO)[C@@H](CCCc1ccccc1)C(=O)N[C@@H](CCCCN)C(=O)NCCc1ccccc1
53 nM | 70 nM | 4 nM | CNC(=O)[C@H](CCCNC(=O)N1CCOCC1)NC(=O)[C@H](CCCc1ccccc1)[C@@](C)(O)C(=O)NO
